Measurements from patent publication US6855730B2, “3-methylidenyl-2-indolinone modulators of protein kinase” (Sugen, Inc., priority 1998, dated 2005).
Like-named read-outs stand apart in the source and are kept apart here.

Assays:
pyk2 = pyk2 (Homo sapiens, UniProt Q14289); assay: bio pyk2 assay; assay type: biochemical
[1] = target: Myc-GyrB-FGFR fusion protein (Homo sapiens, UniProt P11362); assay: Biochemical FGFR assay (ELISA)
PDGFR-β = target: T1, PDGFR-β (Homo sapiens, UniProt P09619); assay: Biochemical PDGFR assay (ELISA, PDGFR-β expressing NIH 3T3 cell lysate); conditions: read-out: bio PDGF IC50
T1 construct: host or cells: NIH 3T3
How it was run: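 Phosphorylation was read by ELISA (anti-phosphotyrosine serum, peroxidase secondary, ABTS at 410 nm) after a 30 min room-temperature reaction with 20 μM ATP, EDTA-stopped. Kinase was lysate-derived PDGFR-β (NIH 3T3) immobilised via 28D4C10 antibody, compound added 30 min before ATP.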

Myc-GyrB-FGFR fusion protein, sequence (P11362 478-767 limits assumed): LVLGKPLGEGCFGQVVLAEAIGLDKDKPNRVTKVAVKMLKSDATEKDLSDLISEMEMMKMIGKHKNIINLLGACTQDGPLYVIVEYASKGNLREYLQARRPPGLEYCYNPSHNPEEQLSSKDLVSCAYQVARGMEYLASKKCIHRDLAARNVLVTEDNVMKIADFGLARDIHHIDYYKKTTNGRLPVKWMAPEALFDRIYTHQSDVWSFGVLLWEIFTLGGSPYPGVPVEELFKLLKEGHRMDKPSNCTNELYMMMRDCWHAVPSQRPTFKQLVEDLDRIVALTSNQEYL
T1 sequence (P09619 33-1106): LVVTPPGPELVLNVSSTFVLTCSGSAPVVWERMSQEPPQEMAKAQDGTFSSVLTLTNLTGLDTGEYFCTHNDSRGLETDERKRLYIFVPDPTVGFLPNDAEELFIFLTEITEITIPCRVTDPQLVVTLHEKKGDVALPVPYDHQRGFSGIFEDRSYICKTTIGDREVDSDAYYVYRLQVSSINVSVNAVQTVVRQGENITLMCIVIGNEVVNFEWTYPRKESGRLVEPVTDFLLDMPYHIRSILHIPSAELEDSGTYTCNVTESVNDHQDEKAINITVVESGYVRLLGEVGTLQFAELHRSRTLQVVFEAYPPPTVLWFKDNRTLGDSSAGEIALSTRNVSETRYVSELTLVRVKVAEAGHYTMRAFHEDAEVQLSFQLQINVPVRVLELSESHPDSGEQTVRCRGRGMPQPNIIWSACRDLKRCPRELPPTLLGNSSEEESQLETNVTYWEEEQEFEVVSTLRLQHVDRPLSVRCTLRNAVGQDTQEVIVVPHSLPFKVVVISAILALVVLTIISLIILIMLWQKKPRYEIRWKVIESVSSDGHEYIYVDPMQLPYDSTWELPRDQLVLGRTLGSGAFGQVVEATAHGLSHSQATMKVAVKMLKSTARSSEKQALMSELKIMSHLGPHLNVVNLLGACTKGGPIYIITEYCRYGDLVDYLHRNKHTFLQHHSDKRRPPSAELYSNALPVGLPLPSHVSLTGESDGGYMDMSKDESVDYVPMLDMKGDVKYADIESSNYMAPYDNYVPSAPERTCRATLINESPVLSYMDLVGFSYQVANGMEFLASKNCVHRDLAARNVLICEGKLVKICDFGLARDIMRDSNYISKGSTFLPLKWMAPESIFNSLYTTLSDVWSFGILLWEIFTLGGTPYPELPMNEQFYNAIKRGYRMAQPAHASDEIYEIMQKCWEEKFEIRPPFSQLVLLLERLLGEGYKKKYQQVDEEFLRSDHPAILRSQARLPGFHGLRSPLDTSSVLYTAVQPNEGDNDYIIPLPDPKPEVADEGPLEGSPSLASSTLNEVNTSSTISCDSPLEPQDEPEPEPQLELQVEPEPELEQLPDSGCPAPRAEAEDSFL
pyk2, sequence (Q14289 whole entry, species assumed, the tested form may be a part): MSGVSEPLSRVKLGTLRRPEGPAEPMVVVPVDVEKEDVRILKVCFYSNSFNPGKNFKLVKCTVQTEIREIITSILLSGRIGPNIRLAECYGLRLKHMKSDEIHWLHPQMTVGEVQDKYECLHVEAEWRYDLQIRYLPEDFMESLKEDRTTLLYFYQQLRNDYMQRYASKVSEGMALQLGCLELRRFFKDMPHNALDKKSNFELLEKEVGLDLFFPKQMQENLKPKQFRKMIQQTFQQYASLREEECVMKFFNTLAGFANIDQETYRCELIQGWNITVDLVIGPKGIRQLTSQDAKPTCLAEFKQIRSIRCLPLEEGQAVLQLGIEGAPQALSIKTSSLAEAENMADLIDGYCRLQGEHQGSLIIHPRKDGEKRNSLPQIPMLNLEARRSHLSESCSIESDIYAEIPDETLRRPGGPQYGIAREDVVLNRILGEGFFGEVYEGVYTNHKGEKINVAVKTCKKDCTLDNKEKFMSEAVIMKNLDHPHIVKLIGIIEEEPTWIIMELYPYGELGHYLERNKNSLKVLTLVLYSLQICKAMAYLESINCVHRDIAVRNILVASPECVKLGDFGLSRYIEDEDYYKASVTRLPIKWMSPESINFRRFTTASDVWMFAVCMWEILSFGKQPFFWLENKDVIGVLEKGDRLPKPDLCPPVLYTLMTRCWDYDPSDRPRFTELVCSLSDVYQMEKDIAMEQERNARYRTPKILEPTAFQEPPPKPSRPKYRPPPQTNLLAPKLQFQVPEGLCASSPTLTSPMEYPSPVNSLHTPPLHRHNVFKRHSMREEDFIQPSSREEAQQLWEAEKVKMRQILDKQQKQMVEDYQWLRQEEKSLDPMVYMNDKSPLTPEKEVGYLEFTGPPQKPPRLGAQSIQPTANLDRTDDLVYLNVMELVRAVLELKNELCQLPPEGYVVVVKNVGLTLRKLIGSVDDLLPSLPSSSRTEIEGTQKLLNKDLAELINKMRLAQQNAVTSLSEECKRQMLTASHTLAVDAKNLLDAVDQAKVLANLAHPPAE

| Compound | IC50 (pyk2) [µM] | IC50 ([1]; read-out: bio fgfR1 IC50) [nM] | IC50 (PDGFR-β) [nM] | IC50 ([1]; bio fgfR1 IC50) [nM] |
| --- | --- | --- | --- | --- |
| NS(=O)(=O)c1ccc2c(c1)/C(=C/c1c[nH]c3ccccc13)C(=O)N2 [Example 172, 3-(1H-Indol-3-ylmethylene)-2-oxo-2,3-dihydro-1H-indole-5-sulfonic acid amide] | 14.8 | 280 | 89400 | – |
| CNS(=O)(=O)c1ccc2c(c1)/C(=C/c1cc3ccccc3[nH]1)C(=O)N2 [Example 173, 3-(1H-Indol-2-ylmethylene)-2-oxo-2,3-dihydro-1H-indole-5-sulfonic acid methylamide] | 9.8 | 290 | 69100 | – |
| O=C1Nc2ccc(C(=O)O)cc2/C1=C/c1c[nH]c2ccccc12 [Example 174, 3-(1H-Indol-3-ylmethylene)-2-oxo-2,3-dihydro-1H-indole-5-carboxylic acid] | 2.57 | 410 | 2500 | – |
| O=C1Nc2ccc(C(=O)O)cc2/C1=C/c1ccc2[nH]ccc2c1 [Example 177, 3-(1H-Indol-5-ylmethylene)-2-oxo-2,3-dihydro-1H-indole-5-carboxylic acid] | > 100 | 1600 | > 100000 | – |
| Nc1ccc2c(c1)/C(=C/c1ccc3[nH]ccc3c1)C(=O)N2 [Example 179, 5-Amino-3-(1H-indol-5-ylmethylene)-1,3-dihydro-indol-2-one] | > 100 | 4520 | > 100000 | – |
| Cc1c(/C=C2\C(=O)Nc3ccc(N)cc32)[nH]c2ccccc12 [Example 180, 5-Amino-3-(3-methyl-1H-indol-2-ylmethylene)-1,3-dihydroindol-2-one] | < 0.78 | 5420 | 1110 | – |
| Cc1[nH]c2ccccc2c1/C=C1\C(=O)Nc2ccc(C(=O)O)cc21 [Example 182, 3-(2-Methyl-1H-indol-3-ylmethylene)-2-oxo-2,3-dihydro-1H-indole-5-carboxylic acid] | 37.1 | 5940 | 5400 | – |
| Cc1[nH]c2ccccc2c1/C=C1\C(=O)Nc2ccc(N)cc21 [Example 187, 5-Amino-3-(2-methyl-1H-indol-3-ylmethylene)-1,3-dihydroindol-2-one] | 75.8 | 13800 | > 100000 | – |
| O=C(O)CCc1c(/C=C2\C(=O)Nc3ccccc32)[nH]c2c1CCCC2 [Example 190, 3-[2-(2-Oxo-1,2-dihydro-indol-3-ylidenemethyl)-4,5,6,7-tetrahydro-1H-indol-3-yl]-propionic acid] | < 0.78 | 5850 | 2080 | – |
| O=C(O)CCc1c(/C=C2\C(=O)Nc3ccc(Cl)cc32)[nH]c2c1CCCC2 [Example 191, 3-[2-(5-Chloro-2-oxo-1,2-dihydroindol-3-ylidenemethyl)-4,5,6,7-tetrahydro-1H-indol-3-yl]-propionic acid] | 68.5 | 40 | 50 | – |
| O=C(O)CCc1c(/C=C2\C(=O)Nc3ccc(Br)cc32)[nH]c2c1CCCC2 [Example 192, 3-[2-(5-Bromo-2-oxo-1,2-dihydroindol-3-ylidenemethyl)-4,5,6,7-tetrahydro-1H-indol-3yl]-propionic acid] | 4.87 | 1810 | 4 | – |
| Cc1cccc2c1/C(=C/c1[nH]c3c(c1CCC(=O)O)CCCC3)C(=O)N2 [Example 193, 3-[2-(4-Methyl-2-oxo-1,2-dihydroindol-3-ylidenemethyl)-4,5,6,7-tetrahydro-1H-indol-3-yl]-propionic acid] | 17.3 | 20 | 44600 | – |
| Cc1ccc2c(c1)/C(=C/c1[nH]c3c(c1CCC(=O)O)CCCC3)C(=O)N2 [Example 194, 3-[2-(5-Methyl-2-oxo-1,2-dihydroindol-3-ylidenemethyl)-4,5,6,7-tetrahydro-1H-indol-3-yl]-propionic acid] | 4.09 | 40 | 81400 | – |
| O=C(O)CCc1c(/C=C2\C(=O)Nc3cc(Cl)ccc32)[nH]c2c1CCCC2 [Example 195, 3-[2-(6-Chloro-2-oxo-1,2-dihydroindol-3-ylidenemethyl)-4,5,6,7-tetrahydro-1H-indol-3-yl]-propionic acid] | 10.7 | 20 | 2040 | – |
| COc1ccc2c(c1)NC(=O)/C2=C\c1[nH]c2c(c1CCC(=O)O)CCCC2 [Example 196, 3-[2-(6-Methoxy-2-oxo-1,2-dihydroindol-3-ylidenemethyl)-4,5,6,7-tetrahydro-1H-indol-3-yl]-propionic acid] | 2.37 | 50 | 33700 | – |
| CN(C)C(=O)CCc1c(/C=C2\C(=O)Nc3ccccc32)[nH]c2c1CCCC2 [Example 197, N,N-Dimethyl-3-[2-(2-oxo-1,2-dihydroindol-3-ylidenemethyl)-4,5,6,7-tetrahydro-1H-indol-3-yl]-propionamide] | 12 | – | > 100000 | – |
| CN(C)CCCc1c(/C=C2\C(=O)Nc3ccccc32)[nH]c2c1CCCC2 [Example 198, 3-[3-(3-Dimethylaminopropyl)-4,5,6,7-tetrahydro-1H-indol-2-ylmethylene]-1,3-dihydroindol-2-one] | 1.5 | – | 40 | – |
| NC(=O)CCc1c(/C=C2\C(=O)Nc3ccccc32)[nH]c2c1CCCC2 [Example 199, 3-[2-(2-Oxo-1,2-dihydroindol-3-ylidenemethyl)-4,5,6,7-tetrahydro-1H-indol-3-yl]-propionamide] | 2.83 | – | 890 | – |
| O=C1Nc2ccccc2/C1=C/c1[nH]c2c(c1CCC(=O)N1CCOCC1)CCCC2 [Example 200, 3-[3-(3-Morpholin-4-yl-3-oxopropyl)-4,5,6,7-tetrahydro-1H-indol-2-ylmethylene]-1,3-dihydroindol-2-one] | 5.62 | – | 11800 | – |
| CNC(=O)CCc1c(/C=C2\C(=O)Nc3ccccc32)[nH]c2c1CCCC2 [Example 201, N-Methyl-3-[2-(2-oxo-1,2-dihydroindol-3-ylidenemethyl)-4,5,6,7-tetrahydro-1H-indol-3-yl]-propionamide] | 6.61 | – | 1730 | – |
| CC(C)NS(=O)(=O)c1ccc2c(c1)C(=Cc1[nH]c3c(c1CCC(=O)O)CCCC3)C(=O)N2 [Example 208, 3-[2-(5-Isopropylaminosulfonyl-2-oxo-1,2-dihydroindol-3-ylidenemethyl)-4,5,6,7-tetrahydro-1H-indol-3-yl]-propionic acid] | 0.13 | – | 23400 | – |
| Cc1c[nH]c(/C=C2\C(=O)Nc3ccccc32)c1CCC(=O)O [Example 215, 3-[4-Methyl-2-(2-oxo-1,2-dihydroindol-3-ylidenemethyl)-1H-pyrrol-3-yl]-propionic acid] | 6.9 | – | 500 | 70 |
| Cc1c[nH]c(/C=C2\C(=O)Nc3ccc(Cl)cc32)c1CCC(=O)O [Example 216, 3-[2-(5-Chloro-2-oxo-1,2-dihydroindol-3-ylidenemethyl)-4-methyl-1H-pyrrol-3-yl]-propionic acid] | 23.9 | – | 220 | – |
| COc1ccc2c(c1)NC(=O)/C2=C\c1[nH]cc(C)c1CCC(=O)O [Example 217, 3-[2-(6-Methoxy-2-oxo-1,2-dihydroindol-3-ylidenemethyl)-4-methyl-1H-pyrrol-3-yl]-propionic acid] | 2.89 | – | 210 | – |
| Cc1c[nH]c(/C=C2\C(=O)Nc3cccc(C)c32)c1CCC(=O)O [Example 218, 3-[2-(4-Methyl-2-oxo-1,2-dihydroindol-3-ylidenemethyl)-4-methyl-1H-pyrrol-3-yl]-propionic acid] | 32.3 | – | 2110 | – |
| Cc1c[nH]c(C=C2C(=O)Nc3cc(Cl)ccc32)c1CCC(=O)O [Example 219, 3-[2-(6-Chloro-2-oxo-1,2-dihydroindol-3-ylidenemethyl)-4-methyl-1H-pyrrol-3-yl]-propionic acid] | 4.15 | – | 470 | – |
| Cc1c[nH]c(/C=C2\C(=O)Nc3ccc(Br)cc32)c1CCC(=O)O [Example 220, 3-[2-(5-Bromo-2-oxo-1,2-dihydroindol-3-ylidenemethyl)-4-methyl-1H-pyrrol-3-yl]-propionic acid] | 1.89 | – | 620 | – |
